From patent US20130172294A1, “Treatment with VB-201” (Vascular Biogenics Ltd., priority 2010, published 2013)

Assay: Effect of food and capsule coating on single-dose pharmacokinetics (Example 3)
Type: in vivo, human
Procedure: Determination of VB-201 concentrations in plasma was performed using an HPLC-MS/MS (high performance liquid chromatography with tandem mass spectrometric detection) assay. Calibration was for a range of from 5 to 500 ng/ml for low doses and from 50 to 5000 ng/ml for high doses. Pharmacokinetic parameters were estimated by using a non-compartmental method, except for the AUC (area under curve), which was determined using a (log-) trapezoidal rule as the area above the previous trough level. All calculations were made using PKWizard (developed by Russell Barbare and Dr. […] was validated against WinNonlin (Pharsight Corp.), which is an FDA-recognized validated program. Pharmacokinetic parameters were calculated by the program according to standard methods used in the art. Calculation of the pharmacokinetic characteristics was based on the actual blood sampling time (in hours), with predose times set to zero. Concentrations below the LLOQ (lower limit of quantification; 4.974 ng/ml) were assumed to be zero. The effects of food on the pharmacokinetics of enteric coated and non-coated VB-201 capsules were investigated in a double-blind, placebo-controlled study in healthy subjects. Cohorts of six subjects each received a single dose of 10 mg, 2×10 mg or 20 mg VB-201 in the morning. […] Subjects were randomly assigned to receive the drug when fed (i.e., following completion of a standardized high fat meal) or when fasting (i.e., fasting for at least 10 hours). […] Subjects then underwent an additional 8 day washout period, after which subjects underwent a second administration. Subjects who received the first administration when fasting, received the second administration when fed, and subjects who received the first administration when fed, received the second administration when fasting. Following the second administration, blood samples were taken at the same times post-dose as previously. Concentration-time curves were constructed for time periods of up to 144 hours. Pharmacokinetic parameters were calculated based on data for the first 24 hours and for the whole 144 hours. […] Nevertheless, parameters were also calculated from data covering the first 24 hours in order to compare parameters with previous studies. Statistical comparisons of doses, coated vs. non-coated capsules, feeding vs. fasting and coating-feeding interactions were performed using a mixed model ANOVA in an SAS 8.02 software package (SAS Institute, Cary, N.C.) using PROC MIXED

## CCCCCCCCCCCCCCCCOCC(COP(=O)([O-])OCC[N+](C)(C)C)OCCCCC(=O)O (stereo not shown) [VB-201, 1-hexadecyl-2-(4′-carboxybutyl)-glycerol-3-phosphocholine]
1 × 20 mg non-coated fasting
  AUC (0-infinity, from 24): 16958 ng·h/mL
  AUC (0-infinity, from 144): 29478 ng·h/mL
  AUC(0-24): 10013 ng·h/mL
  AUC(0-144): 26650 ng·h/mL
  AUMC (0-24): 122207 hours^2*ng/ml
  AUMC (0-infinity): 1763607 hours^2*ng/ml
  Cl/F (0-24): 1.301 L/h
  Cl/F (from 144): 0.702 L/h
  Cmax: 660.4 ng/mL
  Ke (from 24): 0.0486 h⁻¹
  Ke (from 144): 0.0166 h⁻¹
  MTT (0-24): 12.0 h
  MTT (from 144): 61.0 h
  T1/2 (from 24): 14.6 h
  T1/2 (from 144): 43.5 h
  Tmax: 8.33 h
1 × 20 mg non-coated fed
  AUC (0-infinity, from 24): 23552 ng·h/mL
  AUC (0-infinity, from 144): 26424 ng·h/mL
  AUC(0-24): 8334 ng·h/mL
  AUC(0-144): 24282 ng·h/mL
  AUMC (0-24): 111005 hours^2*ng/ml
  AUMC (0-infinity): 1555946 hours^2*ng/ml
  Cl/F (0-24): 1.197 L/h
  Cl/F (from 144): 0.852 L/h
  Cmax: 546.4 ng/mL
  Ke (from 24): 0.0332 h⁻¹
  Ke (from 144): 0.0193 h⁻¹
  MTT (0-24): 13.0 h
  MTT (from 144): 57.2 h
  T1/2 (from 24): 25.2 h
  T1/2 (from 144): 36.4 h
  Tmax: 8.17 h
2 × 10 mg coated fasting
  AUC (0-infinity, from 24): 10388 ng·h/mL
  AUC (0-infinity, from 144): 24950 ng·h/mL
  AUC(0-24): 6427 ng·h/mL
  AUC(0-144): 20269 ng·h/mL
  AUMC (0-24): 83132 hours^2*ng/ml
  AUMC (0-infinity): 2246560 hours^2*ng/ml
  Cl/F (0-24): 3.318 L/h
  Cl/F (from 144): 1.815 L/h
  Cmax: 424.6 ng/mL
  Ke (from 24): 0.0493 h⁻¹
  Ke (from 144): 0.0174 h⁻¹
  MTT (0-24): 12.9 h
  MTT (from 144): 69.2 h
  T1/2 (from 24): 14.9 h
  T1/2 (from 144): 48.0 h
  Tmax: 9.67 h
2 × 10 mg coated fed
  AUC (0-infinity, from 24): 15799 ng·h/mL
  AUC (0-infinity, from 144): 24463 ng·h/mL
  AUC(0-24): 5008 ng·h/mL
  AUC(0-144): 21417 ng·h/mL
  AUMC (0-24): 74749 hours^2*ng/ml
  AUMC (0-infinity): 1794144 hours^2*ng/ml
  Cl/F (0-24): 2.067 L/h
  Cl/F (from 144): 1.239 L/h
  Cmax: 422.3 ng/mL
  Ke (from 24): 0.0427 h⁻¹
  Ke (from 144): 0.0196 h⁻¹
  MTT (0-24): 15.1 h
  MTT (from 144): 64.6 h
  T1/2 (from 24): 22.8 h
  T1/2 (from 144): 37.7 h
  Tmax: 14.33 h
2 × 10 mg non-coated fasting
  AUC (0-infinity, from 24): 14643 ng·h/mL
  AUC (0-infinity, from 144): 25734 ng·h/mL
  AUC(0-24): 10036 ng·h/mL
  AUC(0-144): 24028 ng·h/mL
  AUMC (0-24): 117485 hours^2*ng/ml
  AUMC (0-infinity): 1319516 hours^2*ng/ml
  Cl/F (0-24): 1.444 L/h
  Cl/F (from 144): 0.810 L/h
  Cmax: 724.4 ng/mL
  Ke (from 24): 0.0606 h⁻¹
  Ke (from 144): 0.0195 h⁻¹
  MTT (0-24): 11.7 h
  MTT (from 144): 51.5 h
  T1/2 (from 24): 11.7 h
  T1/2 (from 144): 36.3 h
  Tmax: 8.67 h
2 × 10 mg non-coated fed
  AUC (0-infinity, from 24): 15305 ng·h/mL
  AUC (0-infinity, from 144): 25822 ng·h/mL
  AUC(0-24): 8708 ng·h/mL
  AUC(0-144): 24104 ng·h/mL
  AUMC (0-24): 109878 hours^2*ng/ml
  AUMC (0-infinity): 1409500 hours^2*ng/ml
  Cl/F (0-24): 1.394 L/h
  Cl/F (from 144): 0.802 L/h
  Cmax: 652.1 ng/mL
  Ke (from 24): 0.0528 h⁻¹
  Ke (from 144): 0.0195 h⁻¹
  MTT (0-24): 12.7 h
  MTT (from 144): 54.3 h
  T1/2 (from 24): 15.4 h
  T1/2 (from 144): 36.1 h
  Tmax: 8.50 h
Enteric coated vs non-coated
  effect of enteric coatings on Tmax: increased
